Reference: patent US20260199368A1, “[…] SYSTEM CONTAINING REMIMAZOLAM” (LTS LOHMANN THERAPIE-SYSTEME AG, priority 2022, published 2026)

Test: In vivo studies using Goettingen minipigs: RMZ and CNS7054 plasma pharmacokinetics and bioavailability
Details: IV, 10 mg
Experimental: In order to assess the pharmacokinetic profile and effect of buccally administered oromucosal delivery systems containing remimazolam besylate, in vivo experiments using Goettingen minipigs (female, about 3 months old, body weight was 7 kg at the start of the study) were conducted. Three minipigs were used. A single oromucosal delivery system of Examples 1c (foam) and 1d (hotmelt), prepared as described above, with a nominal amount of 20 mg remimazolam (formulated as 27.2 mg nominal remimazolam besylate), was used per animal (with the exception of animal No 3 in Phase 1, where only half of an oromucosal delivery system of each type was placed in each side). The oromucosal delivery system foam was cut into two pieces to fit on the buccal mucosa.
The dose was given by buccal administration (oromucosal delivery system; hotmelt and foam) or IV administration (10 mg remimazolam formulated as remimazolam besylate according to the treatment schedule shown in table 9. No less than 48 hours were allowed between dosing occasions to allow for proper wash-out. The treatment with the oromucosal delivery systems was performed as follows: • 1. The animals were anaesthetized by mask with isoflurane to obtain sufficient depth of anesthesia to facilitate the placement of the oromucosal delivery system without stressing the animals. The length and concentration of isoflurane anesthesia was similar in all animals. • 2. The oromucosal delivery system was placed on the buccal mucosa. A small amount of saline was applied to the mucosa to facilitate the dissolution process on a single occasion in Phase 1. • 3. The mouth of the minipigs was closed for 1-2 minutes and then opened to check for completely dissolved oromucosal delivery system. If the oromucosal delivery system was not dissolved further checks were performed with intervals of 1-2 minutes, as required. • 4. The isoflurane treatment was stopped as soon as the oromucosal delivery system was dissolved.
In order to evaluate the bioavailability, the animals also received a single intravenous (IV) dose. The IV dose volume was administered as a bolus over a period of approximately 1 minute.
The RMZ IV dose formulation was prepared in glass containers. To prepare said formulation of nominal 5 mg/mL (stock solution), a drug product vial (50 mg of RZM powder) was reconstituted with 10 mL of 0.9% w/v sodium chloride solution. The reconstituted solutions of RMZ were clear and colorless to slightly yellow. The reconstituted RMZ drug product was used within 24 hours.
After each dosing in phase 2-4, blood samples were taken from all animals. Blood samples were collected at 8 time points following application of the oromucosal delivery systems. Samples were collected at the following time points: pre-treatment, and 2, 5, 10, 20, 40, 60 and 90 minutes post-treatment.
RMZ concentrations and CNS7054 concentrations in minipig plasma were determined using a validated liquid-liquid extraction followed by LC-MS/MS. All samples, collected before treatment start, were measured to be below the limit of quantification (0.100 ng/mL).
Individual plasma concentrations are listed in Table 13 and are graphically depicted in FIGS. 3a to 5b. Additionally, basic pharmacokinetic parameters such as maximal plasma concentration (cmax), time to reaching it (tmax) and exposure defined as Area Under the Curve (AUC0-t) are summarized in Table 13 for each individual animal for both RMZ and CNS7054 and following IV administration or administration of either of the two oromucosal delivery system formulations.
For the evaluation of the bioavailability (BA), dose-normalized cmax (cmax/D) and dose-normalized AUC (AUC0-t/D) were determined for the two oromucosal delivery system formulations for RMZ and CNS7054.

Compound: COC(=O)CC[C@@H]1N=C(c2ccccn2)c2cc(Br)ccc2-n2c(C)cnc21.O=S(=O)(O)c1ccccc1 [RMZ, remimazolam besylate]
- CNS7054 plasma concentration (Animal No 1, 1 min): 108 ng/mL
- Remimazolam plasma concentration (Animal No 1, 1 min): 1032 ng/mL
- CNS7054 plasma concentration (Animal No 1, 5 min): 224 ng/mL
- Remimazolam plasma concentration (Animal No 1, 5 min): 767 ng/mL
- CNS7054 plasma concentration (Animal No 1, 10 min): 283 ng/mL
- Remimazolam plasma concentration (Animal No 1, 10 min): 389.5 ng/mL
- CNS7054 plasma concentration (Animal No 1, 20 min): 423 ng/mL
- Remimazolam plasma concentration (Animal No 1, 20 min): 285.5 ng/mL
- CNS7054 plasma concentration (Animal No 1, 40 min): 406 ng/mL
- Remimazolam plasma concentration (Animal No 1, 40 min): 149.3 ng/mL
- CNS7054 plasma concentration (Animal No 1, 60 min): 329 ng/mL
- Remimazolam plasma concentration (Animal No 1, 60 min): 76.1 ng/mL
- CNS7054 plasma concentration (Animal No 1, 90 min): 302 ng/mL
- Remimazolam plasma concentration (Animal No 1, 90 min): 40.6 ng/mL
- CNS7054 AUC0-t (Animal No 1): 30508.5 ng·min/mL
- CNS7054 cmax (Animal No 1): 423 ng/mL
- CNS7054 tmax (Animal No 1): 20 min
- Remimazolam AUC0-t (Animal No 1): 18349.25 ng·min/mL
- Remimazolam cmax (Animal No 1): 1032 ng/mL
- Remimazolam tmax (Animal No 1): 2 min
- CNS7054 plasma concentration (Animal No 2, 1 min): 539 ng/mL
- Remimazolam plasma concentration (Animal No 2, 1 min): 1244 ng/mL
- CNS7054 plasma concentration (Animal No 2, 5 min): 707 ng/mL
- Remimazolam plasma concentration (Animal No 2, 5 min): 432 ng/mL
- CNS7054 plasma concentration (Animal No 2, 10 min): 851 ng/mL
- Remimazolam plasma concentration (Animal No 2, 10 min): 469 ng/mL
- CNS7054 plasma concentration (Animal No 2, 20 min): 783 ng/mL
- Remimazolam plasma concentration (Animal No 2, 20 min): 208.8 ng/mL
- CNS7054 plasma concentration (Animal No 2, 40 min): 508 ng/mL
- Remimazolam plasma concentration (Animal No 2, 40 min): 52.6 ng/mL
- CNS7054 plasma concentration (Animal No 2, 60 min): 267 ng/mL
- CNS7054 plasma concentration (Animal No 2, 90 min): 170 ng/mL
- CNS7054 AUC0-t (Animal No 2): 41688 ng·min/mL
- CNS7054 cmax (Animal No 2): 851 ng/mL
- CNS7054 tmax (Animal No 2): 10 min
- Remimazolam AUC0-t (Animal No 2): 12539.5 ng·min/mL
- Remimazolam cmax (Animal No 2): 1244 ng/mL
- Remimazolam tmax (Animal No 2): 2 min
- CNS7054 plasma concentration (Animal No 3, 1 min): 387 ng/mL
- Remimazolam plasma concentration (Animal No 3, 1 min): 654 ng/mL
- CNS7054 plasma concentration (Animal No 3, 5 min): 815 ng/mL
- Remimazolam plasma concentration (Animal No 3, 5 min): 353.9 ng/mL
- CNS7054 plasma concentration (Animal No 3, 10 min): 798 ng/mL
- Remimazolam plasma concentration (Animal No 3, 10 min): 201 ng/mL
- CNS7054 plasma concentration (Animal No 3, 20 min): 770 ng/mL
- Remimazolam plasma concentration (Animal No 3, 20 min): 124.3 ng/mL
- CNS7054 plasma concentration (Animal No 3, 40 min): 625 ng/mL
- Remimazolam plasma concentration (Animal No 3, 40 min): 41.2 ng/mL
- CNS7054 plasma concentration (Animal No 3, 60 min): 423 ng/mL
- Remimazolam plasma concentration (Animal No 3, 60 min): 52.2 ng/mL
- CNS7054 plasma concentration (Animal No 3, 90 min): 123 ng/mL
- CNS7054 AUC0-t (Animal No 3): 46682.5 ng·min/mL
- CNS7054 cmax (Animal No 3): 815 ng/mL
- CNS7054 tmax (Animal No 3): 5 min
- Remimazolam AUC0-t (Animal No 3): 8551.6 ng·min/mL
- Remimazolam cmax (Animal No 3): 654 ng/mL
- Remimazolam tmax (Animal No 3): 2 min
